# Measured values taken from patent US12714708B2, “Compounds with anti-tumor activity against cancer cells bearing HER2 exon 19 mutations” (Board of Regents, The University of Texas System, priority 2019, dated 2026).
# Columns and labels:
# [1] = tested on: Ba/F3 HER2 L755P mutant cells; assay: Cell Titer Glo cell viability, Ba/F3 cells expressing HER2 L755P; assay type: cell-based; conditions: for inhibition of cell viability: Ba/F3 cells expressing HER2 L755P protein; for IC50: Mus musculus, BaF3, Ba/F3 HER2 L755P mutant cells
# Method: Ba/F3 cells expressing exon 19 point mutation L755P were generated.
# Cell line generation and IL-3 deprivation: Ba/F3 cell line, was cultured in complete RPMI-1640 (R8758; Sigma Life Science) media supplemented with L-glutamine, 10% heat inactivated FBS (Gibco), 1% penicillin/streptomycin (Sigma Life Science), and 10 ng/ml mouse IL-3 (R&D systems) under sterile conditions. Stable cell lines were generated by retroviral transduction of Ba/F3 cell line for 12 hours. Retroviruses were generated by transfecting pBabe-Puro based vectors into the Phoenix 293T ampho packing cell line (Orbigen) using Lipofectamine 2000 (Invitrogen). 72 hours after transduction, 2 μg/ml puromycin (Invitrogen) was added to the media. After 5 days of selection, cells were stained with FITC-HER2 (Biolegend) and sorted via FACS. Cell lines were then grown in the absence of IL-3 for 15 days and cell viability was determined every 3 days using the Cell Titer Glo assay (Progema). Resulting stable cell lines were maintained in complete RPMI-1640 media described above without IL-3. […] To generate HER2 […] cell lines, cells were transduced with c.2264T>C (created from Bioinnovatise from pBabe-puro HER WT from Addgene (#40978)).
# (§1) Cell viability assay and IC50 estimation: Cell viability was determined using the Cell Titer Glo assay (Promega) as previously described (Robichaux et al., 2018). Briefly, 2000-3000 cells per well were plated in 384-well plates (Greiner Bio-One) in technical triplicate. Cells were treated with seven different concentrations of tyrosine kinase inhibitors or vehicle alone at a final volume of 40 μL per well. After 3 days, 11 μL of Cell Titer Glo was added to each well. Plates were shaken for 15 minutes, and bioluminescence was determined using a FLUOstar OPTIMA multi-mode micro-plate reader (BMG LABTECH). Bioluminescence values were normalized to DMSO treated cells, and normalized values were plotted in GraphPad Prism using non-linear regression fit to normalized data with a variable slope. IC50 values were calculated by GraphPad Prism at 50% inhibition.
# [2] = tested on: CW-2 cells (HER2 L755S) xenografts; assay: CW-2 cell line xenograft tumor growth study; assay type: in vivo, mice; conditions: for Tukey's multiple comparisons test Summary: Poziotinib 5 mg/kg
# Method: In vivo xenograft studies: CW-2 cell line xenografts were created by injecting 1×10^6 cells in 50% matrigel into 6-week-old female nu/nu nude mice. When tumors reached 350 mm^3 mice were randomized into 4 groups: 20 mg/kg afatinib, 5 mg/kg poziotinib, 30 mg/kg neratinib, or vehicle control (0.5% Methylcellulose, 2% Tween-80 in dH2O). Tumor volumes were measured three times per week. Mice received drug Monday-Friday (5 days per week), but began dosing on Wednesday allowing for a 2-day holiday after the first 3 days of dosing.
# [3] = tested on: CW-2 colorectal cells; assay: Cell viability of CW-2 cells treated with inhibitors; assay type: cell-based, human; conditions: various concentrations, 72 hours (FIG. 6A)
# Method: A mouse study was performed with mice inoculated with CW-2 cells treated with poziotinib, afatinib, or neratinib. […] Thus, poziotinib, as well as structurally similar inhibitors, are potent inhibitors of HER2 exon 19 mutations and can be used as therapeutics to overcome de novo drug resistance.
# as §1
# Human cell lines: MCF10A cells were purchased from ATCC and were cultured in DMEM/F12 media supplemented with 1% penicillin/streptomycin, 5% horse serum (sigma), 20 ng/ml EGF, […] hydrocortisone, and 10 ug/ml insulin. […]
# [4] = tested on: HER2 exon 19 mutant Ba/F3 cell lines; assay: Cell Titer Glo cell viability, Ba/F3 cell lines expressing HER2 exon 19 mutations; assay type: cell-based
# Method: In addition, several other HER2 exon 19 mutations including D769Y, D769N, D769H, L755S, and R678Q were tested for their sensitivity to different TKIs including poziotinib.
# Cell viability of stable Ba/F3 cell lines expressing HER2 exon 19 mutations grown in IL-3 free conditions was measured for 14 days. Cell viability was determined every 3 days by the Cell Titer Glo assay (FIG. 4). […] Average IC50 values of Ba/F3 cells expressing L755S or L755P with indicated inhibitors were measured (FIG. 5C).
# Cell line generation and IL-3 deprivation: Ba/F3 cell line, was cultured in complete RPMI-1640 (R8758; Sigma Life Science) media supplemented with L-glutamine, 10% heat inactivated FBS (Gibco), 1% penicillin/streptomycin (Sigma Life Science), and 10 ng/ml mouse IL-3 (R&D systems) under sterile conditions. Stable cell lines were generated by retroviral transduction of Ba/F3 cell line for 12 hours. Retroviruses were generated by transfecting pBabe-Puro based vectors into the Phoenix 293T ampho packing cell line (Orbigen) using Lipofectamine 2000 (Invitrogen). 72 hours after transduction, 2 μg/ml puromycin (Invitrogen) was added to the media. After 5 days of selection, cells were stained with FITC-HER2 (Biolegend) and sorted via FACS. Cell lines were then grown in the absence of IL-3 for 15 days and cell viability was determined every 3 days using the Cell Titer Glo assay (Progema). Resulting stable cell lines were maintained in complete RPMI-1640 media described above without IL-3. Cell line identity was confirmed by DNA fingerprinting via short tandem repeats using the PowerPlex 1.2 kit (Promega). Fingerprinting results were compared with reference fingerprints maintained by the primary source of the cell line. All cell lines were free of mycoplasma. […]
# Cell viability assay and IC50 estimation: Cell viability was determined using the Cell Titer Glo assay (Promega) as previously described (Robichaux et al., 2018). […] Plates were shaken for 15 minutes, and bioluminescence was determined using a FLUOstar OPTIMA multi-mode micro-plate reader (BMG LABTECH). […]
# [5] = Day 10, vs. Vehicle, Afatinib 20 mg/kg, Neratinib 30 mg/kg, two-way ANOVA of FIG. 6B
# [6] = Day 13, vs. Vehicle, Afatinib 20 mg/kg, Neratinib 30 mg/kg, two-way ANOVA of FIG. 6B
structure (smiles),measurement,setting,value
Cc1cc(C(=O)Nc2nc3cccc(Cl)c3n2[C@@H]2CCCCN(C(=O)/C=C/CN(C)C)C2)ccn1 [EGF-816],inhibition of cell viability,[1],failed to inhibit cell viability
CN(C)C/C=C/C(=O)Nc1cc2c(Nc3ccc(F)c(Cl)c3)ncnc2cc1O[C@H]1CCOC1 [afatinib],IC50,[1],13 nM
CS(=O)(=O)CCNCc1ccc(-c2ccc3ncnc(Nc4ccc(OCc5cccc(F)c5)c(Cl)c4)c3c2)o1 [lapatinib],inhibition of cell viability,[1],failed to inhibit cell viability
CCOc1cc2ncc(C#N)c(Nc3ccc(OCc4ccccn4)c(Cl)c3)c2cc1NC(=O)/C=C/CN(C)C [neratinib],Tukey's multiple comparisons test Summary,[2]; [5],ns
same,Tukey's multiple comparisons test Summary,[2]; [6],ns
same,Tukey's multiple comparisons test Summary,"[2]; Day 15, vs. Vehicle, Afatinib 20 mg/kg, Neratinib 30 mg/kg, two-way ANOVA of FIG. 6B",ns
same,Tukey's multiple comparisons test Summary,"[2]; Day 17, vs. Vehicle, Afatinib 20 mg/kg, Neratinib 30 mg/kg, two-way ANOVA of FIG. 6B",ns
"C=CC(=O)N1CCC(Oc2cc3c(Nc4ccc(Cl)c(Cl)c4F)ncnc3cc2OC)CC1 [poziotinib, 1-[4-[4-(3,4-dichloro-2-fluoroanilino)-7-methoxyquinazolin-6-yl]oxypiperidin-1-yl]prop-2-en-1-one]",Tukey's multiple comparisons test Summary,"[2]; Day 10, vs. Afatinib (20 mg/kg)",ns
same,Tukey's multiple comparisons test Summary,[2]; [5],ns
same,Tukey's multiple comparisons test Summary,"[2]; Day 13, vs. Afatinib (20 mg/kg)",ns
same,Tukey's multiple comparisons test Summary,"[2]; Day 13, vs. Neratinib (30 mg/kg), Afatinib 20 mg/kg",ns
same,Tukey's multiple comparisons test Summary,[2]; [6],ns
same,Tukey's multiple comparisons test Summary,"[2]; Day 15, vs. Afatinib (20 mg/kg)",ns
same,Tukey's multiple comparisons test Summary,"[2]; Day 17, vs. Afatinib (20 mg/kg)",ns
same,Tumor growth,"[2]; mice inoculated with CW-2 cells, 5 mg/kg (FIG. 6C)",significantly decreased
same,decrease in cell viability,[3],highest decrease in cell viability
same,IC50 values as compared to the other inhibitors tested,"[4]; Ba/F3 cells expressing HER2 exon 19 mutations incl. L755S or L755P, 72 hours of drug treatment",lowest IC50 values
same,concentrations inhibiting HER2 exon 19 mutants,[4]; HER2 exon 19 mutants,low nanomolar concentrations
same,inhibition of growth of mutant cells,"[4]; HER2 exon 19 mutations D769Y, D769N, D769H, L755S, R678Q (FIG. 3)",inhibited the growth of these mutant cells
same,inhibition of cell viability,[1],inhibition of cell viability
same,IC50,[1],3 nM
